The source of these data is ChEMBL document CHEMBL3585327 (Medchemcomm, 2014).

SMILES strings stand for the structures.

Test [1] addresses T1, D(2) dopamine receptor (Homo sapiens, UniProt P14416). Description: Agonist activity at human dopamine D2L receptor expressed in CHO cell membranes after 1 hr by [35S]-GTPgammaS binding assay relative to 100 uM quinelorane. The test is classed as functional. Background: GTPγS is a poorly hydrolysed GTP analogue; its binding reports G protein activation.
The target in test [2] is T1, D(2) dopamine receptor. Description: Potency index, ratio of quinelorane EC50 to compound EC50 for human dopamine D2L receptor expressed in CHO cell membranes. The test is classed as cell-based.
Test [3] has as its target T1, D(2) dopamine receptor. Description: Agonist activity at human dopamine D2L receptor expressed in CHO cell membranes after 1 hr by [35S]-GTPgammaS binding assay. The test is classed as functional.
For the next test, the target named is T2, D(4) dopamine receptor (Homo sapiens, UniProt P21917).
T2 sequence (P21917 whole entry): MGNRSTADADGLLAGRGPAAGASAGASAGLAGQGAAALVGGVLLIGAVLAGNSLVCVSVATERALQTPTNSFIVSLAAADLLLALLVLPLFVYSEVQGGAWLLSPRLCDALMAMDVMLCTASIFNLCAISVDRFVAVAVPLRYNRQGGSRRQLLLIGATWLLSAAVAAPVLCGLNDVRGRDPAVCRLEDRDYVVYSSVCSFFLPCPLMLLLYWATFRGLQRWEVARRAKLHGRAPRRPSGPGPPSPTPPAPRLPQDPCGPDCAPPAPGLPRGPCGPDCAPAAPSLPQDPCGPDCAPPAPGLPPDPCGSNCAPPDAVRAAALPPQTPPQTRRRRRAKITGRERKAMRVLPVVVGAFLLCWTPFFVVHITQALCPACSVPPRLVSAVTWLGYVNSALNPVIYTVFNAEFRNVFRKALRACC
Description: Binding affinity to human dopamine D4 receptor.

A further test has as its target D(1B) dopamine receptor (Homo sapiens, UniProt P21918). Description: Binding affinity to human dopamine D5 receptor.
Test [4] addresses T1, D(2) dopamine receptor. Briefly: Binding affinity to human dopamine D2 receptor.
The target in another test is D(1A) dopamine receptor (Homo sapiens, UniProt P21728). Briefly: Binding affinity to human dopamine D1 receptor.
D(1A) dopamine receptor, sequence (P21728 whole entry): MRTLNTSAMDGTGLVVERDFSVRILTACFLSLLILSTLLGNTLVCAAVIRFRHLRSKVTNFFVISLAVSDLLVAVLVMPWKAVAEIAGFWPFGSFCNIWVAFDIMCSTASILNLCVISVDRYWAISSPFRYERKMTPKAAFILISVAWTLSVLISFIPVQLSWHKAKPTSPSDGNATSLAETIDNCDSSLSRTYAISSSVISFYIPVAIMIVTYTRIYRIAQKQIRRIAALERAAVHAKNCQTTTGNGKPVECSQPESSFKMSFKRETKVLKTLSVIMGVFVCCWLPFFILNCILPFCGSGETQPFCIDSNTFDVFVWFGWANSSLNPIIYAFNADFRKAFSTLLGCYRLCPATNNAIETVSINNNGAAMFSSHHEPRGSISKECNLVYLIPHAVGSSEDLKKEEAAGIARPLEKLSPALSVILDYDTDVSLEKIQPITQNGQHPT

T1 sequence (P14416 whole entry): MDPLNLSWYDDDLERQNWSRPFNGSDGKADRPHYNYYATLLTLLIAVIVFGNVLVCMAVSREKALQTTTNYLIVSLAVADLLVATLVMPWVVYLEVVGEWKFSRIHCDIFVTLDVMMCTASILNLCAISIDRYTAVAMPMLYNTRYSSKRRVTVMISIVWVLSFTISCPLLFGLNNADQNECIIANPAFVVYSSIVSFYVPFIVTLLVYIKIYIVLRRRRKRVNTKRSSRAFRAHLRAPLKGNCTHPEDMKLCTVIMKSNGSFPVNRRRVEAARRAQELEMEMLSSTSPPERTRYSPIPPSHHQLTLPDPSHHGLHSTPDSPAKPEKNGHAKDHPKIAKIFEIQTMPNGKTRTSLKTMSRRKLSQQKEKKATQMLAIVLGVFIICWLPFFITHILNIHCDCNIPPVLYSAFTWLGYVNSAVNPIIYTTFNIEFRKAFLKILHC
D(1B) dopamine receptor, sequence (P21918 whole entry): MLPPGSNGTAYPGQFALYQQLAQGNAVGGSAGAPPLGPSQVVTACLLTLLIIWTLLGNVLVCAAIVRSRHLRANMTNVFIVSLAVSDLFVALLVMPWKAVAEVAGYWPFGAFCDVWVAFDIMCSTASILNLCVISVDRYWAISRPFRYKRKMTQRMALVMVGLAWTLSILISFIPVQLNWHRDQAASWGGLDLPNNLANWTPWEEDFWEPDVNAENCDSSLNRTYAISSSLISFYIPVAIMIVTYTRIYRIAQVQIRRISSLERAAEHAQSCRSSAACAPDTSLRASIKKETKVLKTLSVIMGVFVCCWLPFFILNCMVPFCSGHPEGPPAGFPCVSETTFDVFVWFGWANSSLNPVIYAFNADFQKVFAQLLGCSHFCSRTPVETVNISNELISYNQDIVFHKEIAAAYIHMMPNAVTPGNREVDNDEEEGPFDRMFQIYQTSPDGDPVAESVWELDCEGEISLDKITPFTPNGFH

`CCCN(CCCNC(=O)CCCCCCCCCCCCCCC(=O)NCCCN(CCC)CCc1cccc2c1CC(=O)N2)CCc1cccc2c1CC(=O)N2` showed an Emax on D(2) dopamine receptor [1] of 85%. Moreover, the Ratio EC50 on D(2) dopamine receptor [2] is 3. The EC50 at D(2) dopamine receptor [3] (read-out: EC50) was found to be 6.2 nM.

`CCCN(CCCNC(=O)CCC(=O)NCCCN(CCC)CCc1cccc2c1CC(=O)N2)CCc1cccc2c1CC(=O)N2` yielded an Emax on D(2) dopamine receptor [1] of 94%. For the same compound, the EC50 on D(2) dopamine receptor [3] (read-out: EC50) was determined as 28 nM.

In turn, `CCCN(CCCNC(=O)CCCCCCCCCCCCCCCCCCC(=O)NCCCN(CCC)CCc1cccc2c1CC(=O)N2)CCc1cccc2c1CC(=O)N2` showed an Emax on D(2) dopamine receptor [1] of 58%. Further, at D(2) dopamine receptor [2], the Ratio EC50 came out at 3. The EC50 at D(2) dopamine receptor [3] (read-out: EC50) turned out to be 14 nM.

Consider `CCCN(CCCNC(=O)CCCCCCC(=O)NCCCN(CCC)CCc1cccc2c1CC(=O)N2)CCc1cccc2c1CC(=O)N2`, for which, at D(2) dopamine receptor [1], the Emax was 99%. In addition, on D(2) dopamine receptor [3] (read-out: EC50), the EC50 came to 22 nM.

With `CCCN(CCCNC(=O)OC(C)(C)C)CCc1cccc2c1CC(=O)N2CCCNC(=O)OC(C)(C)C`, on D(2) dopamine receptor [1], the Emax was determined as 45%. Moreover, the EC50 on D(2) dopamine receptor [3] (read-out: EC50) is 1410 nM; at D(2) dopamine receptor [3] (read-out: pEC50 (converted)), 1450 nM.

As to `CCCNCCc1cccc2c1CC(=O)N2`, the Emax at D(2) dopamine receptor [1] was determined as 92%. Also, the EC50 at D(2) dopamine receptor [3] (read-out: EC50) is 85 nM.

As for `CCCN(CCCC(=O)OCC)CCc1cccc2c1CC(=O)N2`, the Emax at D(2) dopamine receptor [1] came out at 90%. Further, at D(2) dopamine receptor [3] (read-out: EC50), the EC50 turned out to be 55 nM.

Regarding `CCCN(CCCNC(=O)OC(C)(C)C)CCc1cccc2c1CC(=O)N2`, the Emax on D(2) dopamine receptor [1] came to 69%. Further, the EC50 at D(2) dopamine receptor [3] (read-out: EC50) is 219 nM.

`CCCN(CCCNC(=O)CCC(=O)O)CCc1cccc2c1CC(=O)N2` returned an Emax on D(2) dopamine receptor [1] of 72%. Also, the EC50 at D(2) dopamine receptor [3] (read-out: EC50) was 4680 nM.

As to `CCCN1CCC[C@@H]2Cc3nc(N)ncc3C[C@H]21` [QUINELORANE], the EC50 at D(2) dopamine receptor [3] (read-out: EC50) amounted to 45 nM.

In the case of `CCCN(CCCNC(=O)CCCCCCCCCCC(=O)NCCCN(CCC)CCc1cccc2c1CC(=O)N2)CCc1cccc2c1CC(=O)N2`, the Emax on D(2) dopamine receptor [1] was 85%. For the same compound, the Ratio EC50 at D(2) dopamine receptor [2] came out at 3. Further, the EC50 on D(2) dopamine receptor [3] (read-out: EC50) is 3.9 nM.

As to `CCCN(CCC)CCc1cccc2c1CC(=O)N2` [ROPINIROLE], the Ki stood at 7.8 nM at D(4) dopamine receptor, 41200 nM on D(1B) dopamine receptor, 3.7 nM on D(2) dopamine receptor [4] and 32500 nM on D(1A) dopamine receptor.

At D(2) dopamine receptor [1], `CCCCCCCCCC(=O)NCCCN(CCC)CCc1cccc2c1CC(=O)N2` had an Emax of 78%. The EC50 on D(2) dopamine receptor [3] (read-out: EC50) is 42 nM.

The Emax is the size of the effect at its maximum, as opposed to the concentration needed. The Ki is the equilibrium dissociation constant of an inhibitor or competing ligand from its target.
